Assay results published in ChEMBL document CHEMBL1146751, “Threshold interaction energy of NRTI's (2'-deoxy 3'-substituted nucleosidic analogs of reverse transcriptase inhibitors) to undergo competitive inhibition” (Bioorg Med Chem Lett, 2004).
Where a name gives a salt, the structure may show the parent alone.

Test system: MT4
Experiment: Potency against […] nucleoside reverse transcriptor was determined in MT-4 cells
Format: functional, cell-based
Details: Homo sapiens

Row | Structure (SMILES) | IC50
1 | O=C1Nc2ccc(Cl)cc2[C@@](C#CC2CC2)(C(F)(F)F)O1 [EFAVIRENZ] | 0.04 µM
2 | S=C(NCCc1ccccn1)Nc1ccc(Br)cn1 [TROVIRDINE HYDROCHLORIDE] | 0.8 µM
3 | Cc1ccnc2c1NC(=O)c1cccnc1N2C1CC1 [NEVIRAPINE] | 0.6 µM
4 | Cc1cn([C@H]2C[C@H](N=[N+]=[N-])[C@@H](CO)O2)c(=O)[nH]c1=O [ZIDOVUDINE] | 0.04 µM
5 | Nc1ccn([C@H]2CC[C@@H](CO)O2)c(=O)n1 [ZALCITABINE] | 1.6 µM
6 | Nc1[nH]cnc2ncnc1-2 [ADENINE] | 12 µM
7 | Cc1ncc([N+](=O)[O-])n1CCOC(c1ccccc1)c1ccccc1 | 0.05 µM
8 | CCOC(=O)c1cccn1S(=O)(=O)c1cc(Cl)ccc1N | 0.4 µM
